pIC50: −log10 of the molar value. Where a name gives a salt, the structure may show the parent alone.
Target: calcium- and phospholipid-dependent protein kinase (PKC)
Assay: Inhibition of the activity of protein kinase C (incorporation of P^32-labelled phosphate into histone H-1)
Format: biochemical
Settings: PKC enriched from rat brain; histone H-1 substrate; 5 min, 30° C.; pH 7.5
Description: For the clarification of the inhibiting influence of compounds of formula I according to the present invention on the calcium- and phospholipid-dependent protein kinase (PKC), this enzyme activity was enriched from rat brain. Using the purification steps described in the literature (J. Biol. Chem., 260, 15718-15722/1985), in the case of a purification consisting of two steps, there was utilized the property of the enzyme to bind to cell membranes in the presence of calcium and to be dissolved off again by calcium chelators (EGTA). In the first enrichment step, there took place the binding of the PKC to membranes of the rat brain and in the second step on so-called inside-out vesicles or erythrocytes. After dissolving off from the erythrocyte membranes and rebuffering, the PKC preparation was present in 10 mM HEPES, 1 mM DTT, 0.1% PEG 20000, pH 7.5. Under these conditions, it could be stored at -70° C. for several months without loss of activity.
The activity of the enzyme was determined via the incorporation of P^32 -labelled phosphate into the protein histone H-1 (Sigma Type III) which can be phosphorylated by PKC.
The test thereby contains the following components: 50 mM HEPES-NaOH (pH 7.5), 5 mM magnesium chloride, 1 mM DTT, 4 μm. free calcium ions, 10 μMaTP, 1 μg phosphatidylserine, 0.2 μg 1,2-diolein, as well as 40 μg histone H-1 and optionally the test substance.
The batch is preincubated for 4 minutes at 30° C. and the reaction then started by the addition of 5 nM PKC. After incubating for 5 minutes at 30° C., the reaction is stopped with 10% TCA and the samples then filtered off. The phosphate incorporation is determined by Cerenkov counting in a scintillation counter. The kinase activity measured in the absence of the test substance was, in each case, taken as being 100% and the inhibiting action of the compounds of formula I referred thereto as percentages.

CCCCCCCCCCCCCCCCCCOc1cn(Cc2ccccc2)c(CNCCCNC(C)c2ccccc2)cc1=O (racemic) [Example 83, (±)-1-Benzyl-5-octadecyloxy)-2-{N-[3-(1-phenylethyl)aminopropyl]-aminomethyl}-4(1H)-pyridone·trihydrochloride]
pIC50: 5.59

CCCCCCCCCCCCCCCCCCOc1cn(Cc2ccccc2)c(CN2CCN(C(C)c3ccccc3)CC2)cc1=O (racemic) [Example 97, (±)-1-[(1-Benzyl-5-octadecyloxy-4(1H)-pyridone-2-yl)methyl]-4-(1-phenylethyl)piperazine·trihydrochloride 3/4 H2 O]
pIC50: 5.36

CCCCCCCCCCCCCCCCCCOc1cn(C(C)c2ccccc2)c(CN2CCN(Cc3ccccc3)CC2)cc1=O (racemic) [Example 98, (±)-1-[(5-Octadecyloxy-1-(1-phenylethyl)-4(1H)-pyridone-2-yl)-methyl]-4-benzylpiperazine]
pIC50: 5.27

CCCCCCCCCCCCCCCCCCOc1cn(Cc2ccccc2)c(CN2CCNCC2C)cc1=O (racemic) [Example 102, (±)-1-[(1-Benzyl-5-octadecyloxy-4(1H)-pyridon-2-yl)methyl]-2-methylpiperazine fumarate]
pIC50: 5.70

CCCCCCCCCCCCCCCCCCOc1cn(C(C)c2ccccc2)c(CN2CCN(Cc3ccccc3)CC2)cc1=O (single isomer, unassigned; (+)) [Example 100, (+)-1-[(5-Octadecyloxy-1-(1-phenylethyl)-4(1H)-pyridone-2-yl)-methyl]-4-benzylpiperazine]
pIC50: 5.57

CCCCCCCCCCCCCCCCCCOc1cn(C(C)c2ccccc2)c(CN2CCN(Cc3ccccc3)CC2)cc1=O (single isomer, unassigned; (-)) [Example 99, (-)-1-[(5-Octadecyloxy-1-(1-phenylethyl)-4(1H)-pyridone-2-yl)-methyl]-4-benzylpiperazine]
pIC50: 5.28

CCCCCCCCCCCCCCCCCCOc1cn(CCCN(C)C)c(CO)cc1=O [Example 21, 1-(3-Dimethylaminopropyl)-2-hydroxymethyl-5-octadecyloxy-4(1H)-pyridone]
pIC50: 5.62

CCCCCCCCCCCCCCCCCCOc1cn(C)c(CNCCCN(C)C)cc1=O [Example 56, 2-[N-(3-Dimethlaminopropyl)-aminomethyl]-1-methyl-5-octadecyloxy-4(1H)-pyridone trihydrochloride hemihydrate]
pIC50: 5.54

CCCCCCCCCCCCCCCCCCOc1cn(Cc2ccccc2)c(CN(C)CCN(C)C)cc1=O [Example 57, 1-Benzyl-2-[N-(2-dimethylaminoethyl)-N-methylaminomethyl]-5-octadecyloxy-4(1H)-pyridone trihydrochloride]
pIC50: 5.72

CCCCCCCCCCCCCCCCCCOc1cn(CCC)c(CNCCCN(C)C)cc1=O [Example 59, 2-[N-(3-Dimethylaminopropyl)aminomethyl]-5-octadecyloxy-1-propyl-4(1H)-pyridone dioxalate]
pIC50: 5.54

CCCCCCCCCCCCCCCCCCOc1cn(C)c(CNCCCN)cc1=O [Example 60, 2-[N-(3-Aminopropyl)-aminomethyl]-1-methyl-5-octadecyloxy-4(1H)-pyridone trihydrochloride]
pIC50: 5.57

CCCCCCCCCCCCCCCCCCOc1cn(Cc2ccccc2)c(CNCCCN)cc1=O [Example 61, 2-[N-(3-Aminopropyl)-aminomethyl]-1-benzyl-5-octadecyloxy-4(1H)-pyridone trihydrochloride]
pIC50: 5.68

CCCCCCCCCCCCCCOc1cn(Cc2ccccc2)c(CNCCCN(C)C)cc1=O [Example 65, 1-Benzyl-2-[N-(3-dimethylaminopropyl)aminomethyl]-5-tetradecyloxy-4(1H)-pyridone dioxalate monohydrate]
pIC50: 5.19

CCCCCCCCCCCCCCCCCCCCOc1cn(Cc2ccccc2)c(CNCCCN(C)C)cc1=O [Example 66, 1-Benzyl-2-[N-(3-dimethylaminopropyl)aminomethyl]-5-eicosanyloxy-4(1H)-pyridone dioxalate monohydrate]
pIC50: 5.60

CCCCCCCCCCCCCCCCCCOc1cn(CC2CCCCC2)c(CNCCCN(C)C)cc1=O [Example 68, 1-Cyclohexylmethyl-2-[N-(3-dimethylaminopropyl)aminomethyl]-5-octadecyloxy-4(1H)-pyridone difumarate]
pIC50: 5.72

CCCCCCCCCCCCCCCCCCOc1cn(-c2ccccc2)c(CNCCCN(C)C)cc1=O [Example 70, 2-[N-(3-Dimethylaminopropyl)aminomethyl]-5-octadecyloxy-1-phenyl-4(1H)-pyridone]
pIC50: 5.66

CCCCCCCCCCCCCCCCCCOc1cn(Cc2ccc(OC)cc2)c(CNCCCN(C)C)cc1=O [Example 72, 2-[N-(3-Dimethylaminopropyl)aminomethyl]-1-(4-methoxybenzyl)-5-octadecyloxy-4(1H)-pyridone trihydrochloride monohydrate]
pIC50: 5.44

CCCCCCCCCCCCCCCCCCOc1cn(Cc2ccccc2)c(CN(C)C)cc1=O [Example 73, 1-Benzyl-2-dimethylaminomethyl-5-octadecyloxy-4(1H)-pyridone oxalate hemihydrate]
pIC50: 5.36

CCCCCCCCCCCCCCCCCCOc1cn(Cc2ccccc2OC)c(CNCCCN(C)C)cc1=O [Example 74, 2-[N-(3-Dimethylaminopropyl)aminomethyl]-1-(2-methoxybenzyl)-5-octadecyloxy-4(1H)-pyridone difumarate]
pIC50: 5.68

CCCCCCCCCCCCCCCCCCOc1cn(Cc2ccccc2)c(CN(C)Cc2ccccc2)cc1=O [Example 75, 1-Benzyl-2-(N-benzyl-N-methylaminomethyl)-5-octadecyloxy-4(1H)-pyridone]
pIC50: 5.02

CCCCCCCCCCCCCCCCCCOc1cn(Cc2ccc(C)cc2)c(CNCCCN(C)C)cc1=O [Example 76, 2-[N-(3-Dimethylaminopropyl)aminomethyl]-1-(4-methylbenzyl)-5-octadecyloxy-4(1H)-pyridone trihydrochloride hemihydrate]
pIC50: 5.72

CCCCCCCCCCCCCCCCCCOc1cn(Cc2ccccc2)c(CNCCCCN)cc1=O [Example 77, 2-[N-(4-Aminobutyl)aminomethyl]-1-benzyl-5-octadecyloxy-4(1H)-pyridone trihydrochloride]
pIC50: 5.64

CCCCCCCC/C=C\CCCCCCCCOc1cn(Cc2ccccc2)c(CNCCCN(C)C)cc1=O [Example 78]
pIC50: 5.34

CCCCCCCCCCCCCCCCCCOc1cn(-c2ccc(OCc3ccccc3)cc2)c(CNCCCN(C)C)cc1=O [Example 79, 1-(4-Benzyloxyphenyl)-2-[N-(3-dimethylaminopropyl)aminomethyl]-5-octadecyloxy-4(1H)-pyridone]
pIC50: 5.66

CCCCCCCCCCCCCCCCCCOc1cn(-c2ccc(OCc3ccccc3)cc2)c(CNCCCN(C)C)cc1=O [Example 80, 1-(4-Benzyloxyphenyl)-2-[N-(3-dimethylaminopropyl)aminomethyl]-5-octadecyloxy-4(1H)-pyridone·difumarate·2,5 H2 O]
pIC50: 5.59

CCCCCCCCCCCCCCCCCCOc1cn(Cc2ccc(O)cc2)c(CNCCCN(C)C)cc1=O [Example 84]
pIC50: 5.47

CCCCCCCCCCCCCCCCCCOc1cn(-c2ccc(O)cc2)c(CNCCCN(C)C)cc1=O [Example 85, 2-[N-(3-Dimethylaminopropyl)aminomethyl]-1-(4-hydroxyphenyl)-5-octadecyloxy-4(1H)-pyridone·trihydrochloride·0,5 H2 O]
pIC50: 5.24

CCCCCCCCCCCCCCCCCCOc1cn(Cc2ccccc2)c(CN(C)CCCN(C)C)cc1=O [Example 89, 1-Benzyl-2-[N-(3-dimethylaminopropyl)-N-methylaminomethyl]-5-octadecyloxy-4(1H)-pyridone trihydrochloride]
pIC50: 5.74

CCCCCCCCCCCCCCCCCCOc1cn(Cc2ccccc2)c(CN2CCN(Cc3ccccc3)CC2)cc1=O [Example 93, 1-[(1-Benzyl-5-octadecyloxy-4(1H)-pyridone-2-yl)methyl]-4-benzylpiperazine·dioxlate·1/2 H2 O]
pIC50: 5.26

CCCCCCCCCCCCCCCCCCOc1cn(Cc2ccccc2)c(CN2CCN(CCc3ccccc3)CC2)cc1=O [Example 94, 1-[(1-Benzyl-5-octadecyloxy-4(1H)-pyridone-2-yl)methyl]-4-(2-phenylethyl)piperazine·trihydrochloride·1/2 H2 O]
pIC50: 5.62

CCCCCCCCCCOc1cn(Cc2ccccc2)c(CN2CCN(CCc3ccccc3)CC2)cc1=O [Example 95, 1-[(1-Benzyl-5-decyloxy-4(1H)-pyridone-2-yl)-methyl]4-(2-phenylethyl)piperazine·dihydrochloride]
pIC50: 5.37

CCCCCCCCCCCCCCCCCCOc1cn(Cc2ccccc2)c(COCCCN(C)C)cc1=O [Example 103, 1-Benzyl-2-(3-dimethylaminopropoxymethyl)-5-octadecyloxy-4(1H)-pyridone dihydrochloride]
pIC50: 5.40

CCCCCCCCCCCCCCCCCCOc1cn(CCC)c(COCCCN(C)C)cc1=O [Example 105, 2-(3-Dimethylaminopropoxymethyl)-5-octadecyloxy-1-propyl-4(1H)-pyridone dihydrochloride 3/4 hydrate]
pIC50: 5.70

From US5185352A, “Alkoxy-4(1H)-pyridone derivatives, processes for the preparation thereof and pharmaceutical compositions containing them” (Goedecke Aktiengesellschaft, priority 1988, dated 1993)
